Experimental data as given in paper PMC9006931, “Altered Response Pattern following AZD5582 Treatment of SIV-Infected, ART-Suppressed Rhesus Macaque Infants” (Journal of Virology, 2022).

What was measured:
[1] = test system: memory CD8+ T cells; assay: Ki67 expression by whole blood flow cytometry, memory CD8+ T cells; type: in vivo, rhesus macaque; details: for Ki67 expression in memory CD8+ T cells: AZD5582 treated infant RMs
Method: The ncNF-κB pathway plays an important role in regulating T cell differentiation without causing broad systemic inflammation ([22]). We have previously observed a stimulatory effect on peripheral T cells following AZD5582 treatment specifically measurable through increased intracellular Ki67 expression ([17]). To further assess the effect of AZD5582 on infant RMs, flow cytometry was performed longitudinally on whole blood on the day of doses 1, 3, 6, and 9 and both 48 to 72h and 7 days after each of these doses. These time points were selected to allow longitudinal evaluation while remaining within blood volume constraints.
Multicolor flow cytometric analysis was performed on whole blood (WB) or cell suspensions using predetermined optimal concentrations of the following fluorescently conjugated monoclonal antibodies (MAbs). For WB T cell analysis the following MAbs were used: CD3-allophycocyanin (APC)-Cy7 (clone SP34-2), CD95-phycoerythrin (PE)-Cy5 (clone DX2), Ki67-AF700 (clone B56), HLA-DR-peridinin chlorophyll protein (PerCP)-Cy5.5 (clone G46-6), CCR7-fluorescein isothiocyanate (FITC) (clone 150503), CCR5-APC (clone 3A9), CD62L (clone SK11), and CD45-RA-PE-Cy7 (clone L45) from BD Biosciences; CD8-BV711 (clone RPA-T8), CD4-BV650 (clone OKT4), and PD-1-BV421 (clone EH12.2H7) from BioLegend; and CD28-ECD (clone CD28-2) from Beckman-Coulter. Flow cytometric acquisition and analysis of samples were performed on at least 100,000 events on an AURORA flow cytometer driven by the SpectroFlo software package (Cytek). Analyses of the acquired data were performed using FlowJo version 10.0.4 software (TreeStar).

[2] = test system: SIVmac251; assay: On-ART viremia (latency reversal) during AZD5582 treatment of SIV-infected, ART-suppressed infant RMs; type: in vivo, rhesus macaque (Macaca mulatta)
Text: In this study, latency reversal was defined as a plasma SIV RNA level above 60 copies/mL during AZD5582 treatment in the presence of continued daily ART (or, “on-ART viremia”). […] On-ART viremia peaked at 771 copies/mL in RVf20 2 days post-dose 9. […] This low-level viremia contrasts, however, with the sustained suppression below 60 copies/mL in the 10 months before AZD5582 treatment in these 3 infants (Fig. 1B).
Twelve infant, Indian RMs (Macaca mulatta), with the exclusion of Mamu B*08- and B*17-positive animals, were enrolled in this study. The animals were born at the Yerkes National Primate Research Center (YNPRC) to dams housed in indoor/outdoor group housing. The infants were removed from the dams when they were approximately 2 weeks old and transferred to an indoor nursery, where they were housed in social pairs with either full contact or protected contact for the duration of the study. The infants were fed in accordance with the YNPRC standard operating procedures (SOPs) for NHP feeding. After being removed from the dam, infants were fed center-approved milk replacer (Similac Advance, OptiGro Infant Formula with Iron and/or Similac Soy Isomil OptiGro Infant Formula with Iron; Abbott Nutrition, Columbus, OH) until 14 weeks of age. Infants were provided softened standard primate jumbo chow biscuits (Jumbo Monkey Diet 5037; Purina Mills, St. Louis, MO) and a portion of orange starting between 2 to 4 weeks of age. As animals aged additional enrichment of various fresh produce items were provided daily. The animals were orally infected at 4 to 5 weeks of age with two consecutive doses of 10^5 TCID50 (50% tissue culture infectious doses) of SIVmac251. Three infants required multiple weekly 2-dose challenges before successful infection (totaling up to three challenges). Eight historical controls that followed the same regimen were included in this study. Yerkes National Primate Research Center is accredited by both the U.S. Department of Agriculture (USDA) and by the Association for Assessment and Accreditation of Laboratory Animal Care (AAALAC). All animal procedures were performed in accordance with guidelines established by the Emory University Institutional Animal Care and Use Committee Guidelines and those set up by the NIH’s Guide for the Care and Use of Laboratory Animals, 8th edition.
The 12 RM infants were treated with a potent three-drug ART regimen initiated at 4 weeks postinfection. The preformulation ART cocktail contained two reverse transcriptase inhibitors, 5.1 mg/kg tenofovir disoproxil fumarate (TDF) and 40 mg/kg emtricitabine (FTC), plus 2.5 mg/kg of the integrase inhibitor dolutegravir (DTG). This ART cocktail was administered once daily at […] via the subcutaneous route.
The IAPi AZD5582 was reconstituted to 0.4 mg/mL in 10% Captisol within 1 week of administration as previously described ([17]). Monkeys assigned to the experimental intervention group received 10 administrations of 0.1 mg/kg AZD5582 by intravenous (i.v.) infusion with an inline filter for 30 minutes every week for 10 weeks.
Plasma viral quantification was performed as described previously ([12]). The frozen cell pellet was lysed with proteinase K (100 μg/mL in 10 mM Tris-HCl pH 8) for 1h at 56°C. Quantification of SIVmac gag DNA was performed by quantitative PCR (qPCR) using the 5′ nuclease (TaqMan) assay with an ABI7500 system (PerkinElmer Life Sciences). The sequence of the forward primer for SIVmac gag was 5′-[…]-3′, the reverse primer sequence was 5′-[…]-3′, and the probe sequence was 5′-6-carboxyfluorescein (FAM)-[…]-6-carboxytetramethylrhodamine (TAMRA)-3′. 7.5 μL of cell lysate were mixed in a 50 μL reaction mixture containing 1× Platinum Buffer, 3.5 mM MgCl2, 0.2 mM dNTP, primers 200 nM, probe 150 nM, and 2U Platinum Taq. For cell number quantification, quantitative PCR was performed simultaneously for monkey albumin gene copy number. […]

[3] = 10 weekly doses 0.1 mg/kg i.v., LOD 60 copies/mL

`CN[C@@H](C)C(=O)N[C@H](C(=O)N1CCC[C@H]1C(=O)N[C@H]1c2ccccc2C[C@H]1OCC#CC#CCO[C@@H]1Cc2ccccc2[C@@H]1NC(=O)[C@@H]1CCCN1C(=O)[C@@H](NC(=O)[C@H](C)NC)C1CCCCC1)C1CCCCC1` [AZD5582] was tested, and the “Mean Ki67 expression in peripheral memory CD8+ T cells” value ([1]; 3-days post-AZD5582 (doses 1, 3, 6, 9), P = 0.03) was 26.5%, the “Ki67 expression in memory CD8+ T cells” value ([1]; 7 days following dose 1) was 46.7% and the “Ki67 expression in memory CD8+ T cells” value ([1]; before the increase seen after dose 1) was 5.1%. The “Mean Ki67 expression in peripheral memory CD8+ T cells” value ([1]; baseline (immediately before doses 1, 3, 6, 9)) was 18.2%, the “Average increase of Ki67 expression in memory CD8+ T cells after dose 1” value ([1]; relative to three baseline measurements, treated infant RMs) was 23.3% and the “First instance of latency reversal, time after the 4th dose” value [2] was 48 h. For the same molecule, the “Start of on-ART viremia, time post-dose 4” value [2] was 3 days, the “SIV reactivation, per animal (RMs with on-ART viremia above LOD)” value [2, 3] was 5/8 and the “SIV reactivation, per animal (percent of RMs with on-ART viremia)” value [2, 3] was 63%. The “SIV reactivation, events >60 copies/ml (percent of measurements)” value ([2]; 135 measurements in the 5 RMs with on-ART viremia) was 6%, the “Peak on-ART viremia” value ([2]; RVf20, 2 days post-dose 9) was 771 copies/mL and the “SIV reactivation, events >60 copies/ml (measurements above LOD)” value ([2]; of 135 viral load measurements in the 5 RMs with on-ART viremia) was 8.
